{"source": "patent US20250093329A1", "about": "“SCREENING OF COMPOUNDS” (THE UNIVERSITY OF TULSA, priority 2022, published 2025)", "key": {"[1]": {"system": "BxPC3", "assay": "ATP levels by CellTiter-Glo, compound alone or with metabolic inhibitor (Table 1)", "type": "cell-based", "conditions": "compound 100 uM + 2DG (about 10-20 mM), DMEM + 10% FBS, two hour incubation, DMSO control", "excerpt": "The improved method for identifying such compounds measures ATP levels as a function of light emitted by any ATP dependent luciferase or modified luciferases, i.e. luciferase derivatives. The method uses a conventional luminescent assay to determine the number of viable cells in a culture. The improvement provided by the present method results from pre-treating cells used in the assays with a metabolic inhibitor prior to treatment with the compound of interest, or switching the cells to a media formulated to force use of a specific metabolic pathway. Luminescent assays for determining cytotoxicity are well known in the art. […]\nFollowing treatment of the control and test cells with the metabolic inhibitor (or switching to a new media), the method calls for addition of the compound to be screened for anti-cancer properties to the cells. […] Following completion of the selected time period, the ATP level within the cell is determined. ATP levels can be determined by luminescence according to standard measuring procedures, i.e. the luminescence level of the assay from the living cells treated with the two component composition is compared to the luminescence level of the assay from the living cells without the two component composition, i.e., the control experiment. […]"}, "[2]": {"system": "each cell line tested", "assay": "ATP levels by CellTiter-Glo, all cell lines of Table 1 taken together", "type": "cell-based", "conditions": "Table 1 cell lines", "excerpt": "A wide variety of ATP luminescing detection reagents are available commercially. So long as the reagent produces a luminescence in the presence of ATP, the reagent will be suitable for use in the present method. Suitable reagents include but are not limited to any ATP dependent luciferase such as but not limited to firefly luciferase, other modified luciferase based reagents, i.e. luciferase derivatives. According to the rapid method for determining the anti-cancer activity of a compound, a sample of living cells is distributed across a number of testing wells. Typically, 96-well plates are used; however, the number of wells is not critical to the current method. When using a 96-well plate the number of living cells will commonly be about 20,000. […] The sample wells contain a cell growth medium to promote cell health and growth and an additive to prevent bacterial contamination of the wells. One common example of the cell growth medium is DMEM with 10% FBS as described above. One example of the additive to prevent bacterial contamination is a solution of penicillin G and streptomycin referred to commonly as Pen-Strep. The Pen-Strep solution typically contains 5000 units of penicillin G and 5000 micrograms of streptomycin. Thus, the rapid determination of anti-cancer compounds can be carried out using the following method. • The desired number of cells are distributed in a 96-well plate containing 100 μL DMEM plus 10% FBS with optional Pen-Strep. • After 24 hours, cells are treated with the compound of interest or a 5% solution of dimethyl sulfoxide (DMSO) in water as a control. • The time period for exposure to the compound of interest and the DMSO control will vary depending on the luminescing detection reagent. However, when using a commercially available reagent such as resazurin (CellTiter Blue commercially available from Promega) or luciferase or a luciferase derivative (CellTiter Glo commercially available from Promega) the time period can be readily determined with reference to literature from the commercial source. Other luminescing detection agents can also be used with minimal experimentation to determine the desired compound exposure time. • Upon completion of the time period for exposure to the compound of interest or the DMSO, 10 μL of the luminescing detection reagent is added and the cells are lysed by a detergent added along with the luminescing detection reagent. • When the reagent is resazurin, as found in CellTiter-Blue the time period for exposure to the compound of interest and the DMSO will be about 24 hours. • When the reagent is luciferase or a luciferase derivative as found in CellTiter-Glo the time period for exposure to the compound of interest and the DMSO will be about 30 minutes to four hours. • The luminescing detection reagent is added over a period of time. • When using resazurin, the time period for the addition of the 10 μl volume takes place over a period of about one to four hours. • When using luciferase or a luciferase derivative, the time period is about 3 minutes to about 7 minutes, typically about 5 minutes. • During the time period of addition of the luminescing detection reagent the resulting luminescence is measured using conventional methods and devices. […] If the compound of interest deactivates the cell, then the cell produces less or no ATP. As a result, the cells in the well treated with the compound of interest will have a lower luminescence value as compared to the cells in wells treated with DMSO. • The value for the cells treated with the compound of interest is reported as a “percent of control” (POC) value. The determination of POC is calculated by dividing the averaged response from duplicate wells containing the cells as treated with the compound of interest by the average response of duplicate control wells which contain only cells and DMSO (in other words, a blank control experiment). […]"}}, "note": "Entries after “also recorded” stand apart in the source; their conditions may differ."}
{"smiles": "O=S(=O)(NCc1c[nH]c2ccccc12)c1ccc(Cl)cc1", "note": "[Compound 2, N-[(1H-indol-3-yl)methyl]-4-chlorobenzenesulfonamide]", "values": [{"measurement": "percent of control (POC), ATP luminescence", "setting": "[1]", "result": "remarkable value; also recorded: effectiveness"}, {"measurement": "reduction in luminescence (reduced ATP) across the cell lines, compound alone", "setting": "[2]; 100 μM compound alone", "result": "reduction in luminescence"}, {"measurement": "effectiveness across the cell lines, with 2-DG", "setting": "[2]; 100 μM compound with 2-DG", "result": "effectiveness against each cell line; also recorded: remarkable effectiveness"}]}
